Source: patent US12215354B2, “Differentiation of human embryonic stem cells into single hormonal insulin positive cells” (Janssen Biotech, Inc., priority 2011, dated 2025)

Key:
[1] = tested on: human embryonic stem cell line H1; assay: Real-time PCR gene expression, timing of BMP inhibition at stage 3 (Example 3); type: cell-based
Method: Cells of the human embryonic stem cell line H1 at various passages (passage 40 to passage 52) were seeded as single cells at a density of 100,000 cells/cm^2 on MATRIGEL™ (1:30 dilution) coated dishes in mTesr™1 media supplemented with 10 μM of Y27632. Forty eight hours post seeding, cultures were differentiated into cells of the pancreatic endocrine lineage as follows: • a. Stage 1 (Definitive Endoderm (DE)−4 days): Prior to start of DE, the cells were washed and incubated with incomplete PBS (no Mg or Ca) for 30 seconds followed by incubation in S1 media. Human embryonic stem cells cultured as single cells on MATRIGEL™-coated dishes were treated for one day with MCDB-131 medium supplemented with 0.1% fatty acid-free BSA, 0.0012 g/ml sodium bicarbonate, 1× GLUTAMAX™, 2.5 mM D-Glucose, 100 ng/ml GDF8, 1.5 μM MCX compound (GSK3B inhibitor). Cells were then treated for […] (days 2-4) with MCDB-131 medium supplemented with 0.1% fatty acid-free BSA, 0.0012 g/ml sodium bicarbonate, 1× GLUTAMAX™, 2.5 mM glucose, and 100 ng/ml GDF8. • b. Stage 2 (Primitive gut tube−3 days): Stage 1 cells were treated for three days with MCDB-131 medium supplemented with 0.1% fatty acid-free BSA, 0.0012 g/ml sodium bicarbonate, 1× GLUTAMAX™, 2.5 mM D-Glucose, and 50 ng/ml FGF7. • c. Stage 3 (Foregut−3 days): Stage 2 cells were treated with MCDB-131 medium supplemented with a 1:200 dilution of ITS-X, 2.5 mM Glucose, 1× GLUTAMAX™, 0.0015 g/ml sodium bicarbonate, 2% fatty acid-free BSA, 0.25 μM SANT-1, 20 ng/ml of Activin-A, 2 μM RA, 50 ng/ml FGF7, 100 nM LDN-193189 (on day 1 only or for the duration of stage 3), and 200 nM TPB. In some cultures, LDN-193189 was removed from stage 3. • d. Stage 4 (Pancreatic foregut precursor-3 days): Stage 3 cells were treated with MCDB-131 medium supplemented with a 1:200 dilution of ITS-X, 2.5 mM Glucose, 1× GLUTAMAX™, 0.0015 g/ml sodium bicarbonate, 2% fatty acid-free BSA, 0.25 μM SANT-1, 100 nM TPB, 200 nM LDN-193189, 2 μM ALk5 inhibitor, and 100 nM CYP26A inhibitor for three days. • e. […]

[2] = tested on: human embryonic stem cell line H1; assay: Real-time PCR gene expression, dose of BMP inhibitor at S4 (Example 5); type: cell-based; conditions: 50 nM or 100 nM at days 1, 2, 3, or 4 of S4
Method: Cells of the human embryonic stem cell line H1 at various passages (passage 40 to passage 52) were seeded as single cells at a density of 100,000 cells/cm^2 on MATRIGEL™ (1:30 dilution) coated dishes in mTesr™1 media and 10 μM of Y27632. Forty eight hours post seeding, cultures were differentiated into pancreatic endocrine lineage as follows: • a. Stage 1 (Definitive Endoderm (DE)−4 days): Prior to start of DE, the cultures were washed and incubated with incomplete PBS (no Mg or Ca) for 30 seconds followed by addition of the stage 1 media. Human embryonic stem cells cultured as single cells on MATRIGEL™-coated dishes were treated with MCDB-131 medium supplemented with 0.1% fatty acid-free BSA, 0.0012 g/ml sodium bicarbonate, 1× GLUTAMAX™, 2.5 mM D-Glucose, 100 ng/ml GDF8, and 1 μM MCX compound (GSK3B inhibitor) for one day. Cells were then treated with MCDB-131 medium supplemented with 0.1% fatty acid-free BSA, 0.0012 g/ml sodium bicarbonate, 1× GLUTAMAX™, 2.5 mM glucose, and 100 ng/ml GDF8 for days 2-4. • b. Stage 2 (Primitive gut tube−3 days): Stage 1 cells were treated with MCDB-131 medium supplemented with 0.1% fatty acid-free BSA, 0.0012 g/ml sodium bicarbonate, 1× GLUTAMAX™, 2.5 mM D-Glucose, and 50 ng/ml FGF7 for three days. • c. […]

[3] = at stage 4, 100 nM LDN-193189 on first day of stage 3, removed at days 2-3

## c1ccc2c(-c3cnn4cc(-c5ccc(N6CCNCC6)cc5)cnc34)ccnc2c1 [LDN-193189]
[1]; at S3-S4, LDN-193189 retained for the duration of stage 3
  expression of SOX2: very high expression
[1]; [3]
  CDX2 and SOX2 expression: decreasing
  expression of NGN3 and NeuroD: significantly boosted
[2]
  expression of endocrine markers: prolong
[2]; at S4-S5
  expression of SOX2: low expression
